# Source: patent US11759455B2, “Substituted 1H-imidazo[4,5-b]pyridin-2(3H)-ones and their use as GLUN2B receptor modulators” (JANSSEN PHARMACEUTICA NV, priority 2016, dated 2023)
# Read-outs that look alike come from different tables or passages of the source.
# Molecular target: T1, human GluN1/GluN2B NMDA receptors (Homo sapiens, UniProt Q13224)
# T1 construct: expressed in transfected cells
# Assay: Cell-based calcium flux (FLIPR) assay on cloned human NR1/NR2B ion channels expressed in mammalian cells (standard and HTS buffer variants);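 further: stable Tet-On inducible cell line, Ca2+ influx triggered by glutamate at about EC40 plus 10 µM glycine, fluorescent dye read-out over 5 min, normalized to control wells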
# [1] = standard assay buffer (0.5 mM MgCl2 in dye loading buffer; 137 mM NaCl, 4 mM KCl in assay buffer), human GluN1/GluN2B, read-out: NR2B IC50 (μM) standard assay
# [2] = standard assay buffer (0.5 mM MgCl2 dye loading; 137 mM NaCl, 4 mM KCl assay buffer), human GluN1/GluN2B cells, read-out: NR2B IC50 (μM) standard assay
# T1 sequence (Q13224 27-1484, other chains not shown): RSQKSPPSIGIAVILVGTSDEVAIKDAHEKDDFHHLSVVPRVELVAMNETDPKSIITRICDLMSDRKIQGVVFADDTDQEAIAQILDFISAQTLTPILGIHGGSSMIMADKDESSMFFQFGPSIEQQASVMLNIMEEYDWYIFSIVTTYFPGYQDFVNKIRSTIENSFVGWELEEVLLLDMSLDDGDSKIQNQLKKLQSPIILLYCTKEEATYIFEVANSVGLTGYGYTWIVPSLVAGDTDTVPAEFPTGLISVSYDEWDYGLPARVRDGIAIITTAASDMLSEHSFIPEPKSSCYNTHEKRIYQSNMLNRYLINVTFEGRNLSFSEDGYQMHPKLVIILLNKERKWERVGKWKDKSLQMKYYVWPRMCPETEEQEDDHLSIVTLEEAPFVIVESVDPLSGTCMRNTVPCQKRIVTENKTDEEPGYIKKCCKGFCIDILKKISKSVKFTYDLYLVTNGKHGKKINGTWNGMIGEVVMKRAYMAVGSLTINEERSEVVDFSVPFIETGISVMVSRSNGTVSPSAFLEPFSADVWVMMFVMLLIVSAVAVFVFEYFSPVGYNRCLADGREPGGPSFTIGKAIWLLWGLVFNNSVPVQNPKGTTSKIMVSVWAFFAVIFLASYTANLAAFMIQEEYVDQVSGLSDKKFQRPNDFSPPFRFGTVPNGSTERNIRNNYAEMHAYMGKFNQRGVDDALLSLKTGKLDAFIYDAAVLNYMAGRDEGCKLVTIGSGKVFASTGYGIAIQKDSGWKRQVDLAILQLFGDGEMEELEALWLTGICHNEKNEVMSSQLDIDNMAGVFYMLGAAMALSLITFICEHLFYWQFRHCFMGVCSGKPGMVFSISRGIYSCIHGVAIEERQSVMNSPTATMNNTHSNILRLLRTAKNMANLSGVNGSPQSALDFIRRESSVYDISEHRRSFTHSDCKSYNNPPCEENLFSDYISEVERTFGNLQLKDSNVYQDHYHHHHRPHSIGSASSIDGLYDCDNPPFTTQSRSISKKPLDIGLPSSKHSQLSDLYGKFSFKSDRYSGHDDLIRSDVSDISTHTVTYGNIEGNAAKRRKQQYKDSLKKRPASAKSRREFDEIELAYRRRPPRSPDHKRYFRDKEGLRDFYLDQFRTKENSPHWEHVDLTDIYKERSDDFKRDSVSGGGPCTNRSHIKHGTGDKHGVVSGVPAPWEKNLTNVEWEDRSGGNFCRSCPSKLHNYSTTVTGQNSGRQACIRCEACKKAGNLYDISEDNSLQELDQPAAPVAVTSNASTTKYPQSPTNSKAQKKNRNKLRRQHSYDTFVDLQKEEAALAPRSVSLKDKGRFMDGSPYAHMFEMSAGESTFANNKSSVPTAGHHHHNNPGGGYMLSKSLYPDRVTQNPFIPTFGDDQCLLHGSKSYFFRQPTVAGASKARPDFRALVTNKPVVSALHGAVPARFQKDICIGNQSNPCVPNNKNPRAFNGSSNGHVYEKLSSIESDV
Compound,IC50 [1] [µM],IC50 [2] [µM],further results
"COc1ccc(-c2cnc3[nH]c(=O)n(CC(=O)NC4CC4)c3c2)c(OC)c1 [Example 454, N-Cyclopropyl-2-[6-(2,4-dimethoxyphenyl)-2-oxo-3H-imidazo[4,5-b]pyridin-1-yl]acetamide]",–,–,"IC50 (HTS assay buffer (1.5 mM MgCl2 in dye loading buffer; 150 mM NaCl, 3 mM KCl in assay buffer), human GluN1/GluN2B, read-out: NR2B IC50 (μM) HTS assay): 1.94 µM"
"Cn1c(=O)n(Cc2cncc(F)c2)c2cc(-c3cccc(OC(F)(F)F)c3)cnc21 [Example 345, 1-[(5-Fluoro-3-pyridyl)methyl]-3-methyl-6-[3-(trifluoromethoxy)phenyl]imidazo[4,5-b]pyridin-2-one]",0.778,–,–
"Cc1cc(-c2cnc3c(c2)n(Cc2cccnc2)c(=O)n3C)ccc1F [Example 45, 6-(4-Fluoro-3-methyl-phenyl)-3-methyl-1-(3-pyridylmethyl)imidazo[4,5-b]pyridin-2-one]",–,0.038,–
"COc1ccc(Cn2c(=O)[nH]c3ncc(-c4cccc(C(F)(F)F)c4)cc32)nn1 [Example 252, 1-[(6-Methoxypyridazin-3-yl)methyl]-6-[3-(trifluoromethyl)phenyl]-3H-imidazo[4,5-b]pyridin-2-one]",–,> 10,–
"COc1ccc(-c2cnc3[nH]c(=O)n(Cc4ccccc4C#N)c3c2)cc1F [Example 491, 2-[[6-(3-Fluoro-4-methoxy-phenyl)-2-oxo-3H-imidazo[4,5-b]pyridin-1-yl]methyl]benzonitrile]",0.053,–,–
"Cn1c(=O)n(CC(=O)N2CCC2)c2cc(-c3cc(C(F)F)cs3)cnc21 [Example 117, 1-[2-(Azetidin-1-yl)-2-oxo-ethyl]-6-[4-(difluoromethyl)-2-thienyl]-3-methyl-imidazo[4,5-b]pyridin-2-one]",–,0.038,–
"Cn1c(=O)n(Cc2cncc(Cl)c2)c2cc(-c3ccc(F)c(F)c3)cnc21 [Example 369, 1-[(5-Chloro-3-pyridyl)methyl]-6-(3,4-difluorophenyl)-3-methyl-imidazo[4,5-b]pyridin-2-one]",0.096,–,–
"O=c1[nH]c2ncc(-c3cccc(OC(F)(F)F)c3)cc2n1CCN1CCC1 [Example 160, 1-[2-(Azetidin-1-yl)ethyl]-6-[3-(trifluoromethoxy)phenyl]-3H-imidazo[4,5-b]pyridin-2-one]",–,0.311,–
"Cn1c(=O)n(Cc2cccnn2)c2cc(-c3ccc(F)c(OC(F)F)c3)cnc21 [Example 542, 6-[3-(Difluoromethoxy)-4-fluoro-phenyl]-3-methyl-1-(pyridazin-3-ylmethyl)imidazo[4,5-b]pyridin-2-one]",0.016,–,–
"Cc1nnc(Cn2c(=O)[nH]c3ncc(-c4ccc(F)cc4)cc32)o1 [Example 13, 6-(4-Fluorophenyl)-1-[(5-methyl-1,3,4-oxadiazol-2-yl)methyl]-3H-imidazo[4,5-b]pyridin-2-one]",–,0.076,–
"Cc1cc(-c2cnc3c(c2)n(Cc2cncc(F)c2)c(=O)n3C)ccc1F [Example 340, 6-(4-Fluoro-3-methyl-phenyl)-1-[(5-fluoro-3-pyridyl)methyl]-3-methyl-imidazo[4,5-b]pyridin-2-one]",0.052,–,–
"Cc1ccc(-c2cnc3c(c2)n(CC(=O)N(C)C)c(=O)n3C)s1 [Example 78, N,N-Dimethyl-2-[3-methyl-6-(5-methyl-2-thienyl)-2-oxo-imidazo[4,5-b]pyridin-1-yl]acetamide]",–,0.043,–
"Cc1cc(Cn2c(=O)n(C)c3ncc(-c4cccc(C(F)(F)F)c4)cc32)no1 [Example 74, 3-Methyl-1-[(5-methylisoxazol-3-yl)methyl]-6-[3-(trifluoromethyl)phenyl]imidazo[4,5-b]pyridin-2-one]",–,0.057,–
"Cc1ccc(C(F)(F)F)cc1-c1cnc2[nH]c(=O)n(CCN3CCC3)c2c1 [Example 172, 1-[2-(Azetidin-1-yl)ethyl]-6-[2-methyl-5-(trifluoromethyl)phenyl]-3H-imidazo[4,5-b]pyridin-2-one]",–,0.326,–
"Cc1ccc(-c2cnc3[nH]c(=O)n(Cc4ccccn4)c3c2)cc1 [Example 289, 6-(p-Tolyl)-1-(2-pyridylmethyl)-3H-imidazo[4,5-b]pyridin-2-one]",–,7.08,–
"O=c1[nH]c2ncc(-c3cc(F)cc(F)c3)cc2n1CCN1CCCC1 [Example 174, 6-(3,5-Difluorophenyl)-1-(2-pyrrolidin-1-ylethyl)-3H-imidazo[4,5-b]pyridin-2-one]",–,1.25,–
